Where two headings read alike, the source gives them in different places.
Test system: primary acute myeloid leukemia (AML) cells obtained from patients
Experiment: Kinase inhibitor library screening with and without NSC130362, primary AML cells
Assay type: cell-based, Human
[1] = ratio of EC50 for inhibitor to EC50 for inhibitor/NSC130362 combination, NSC130362 10 μM, Screen N 1
[2] = ratio of EC50 for inhibitor to EC50 for inhibitor/NSC130362 combination, NSC130362 10 μM, Screen N 2
[3] = ratio of EC50 for inhibitor to EC50 for inhibitor/NSC130362 combination, NSC130362 10 μM, Screen N 3

Row | Molecule | EC50 decrease, fold (Screen N 1) [1] [fold] | EC50 decrease, fold (Screen N 2) [2] [fold] | EC50 decrease, fold (Screen N 3) [3] [fold] | EC50 decrease, fold (Screen N 1) [fold] | EC50 decrease, fold (Screen N 2) [fold] | EC50 decrease, fold (Screen N 3) [fold]
1 | Cc1ccc(-n2nc(C(C)(C)C)cc2NC(=O)Nc2ccc(OCCN3CCOCC3)c3ccccc23)cc1 [Doramapimod (BIRB 796)] | 0.15 | 1.0 | 511.2 | – | – | –
2 | CN1CCN(c2ccc3nc(-c4c(N)c5c(F)cccc5[nH]c4=O)[nH]c3c2)CC1 [Dovitinib (CHIR-258)] | 2.6 | 1.0 | 96.7 | – | – | –
3 | CS(=O)(=O)CCNCc1ccc(-c2ccc3ncnc(Nc4ccc(OCc5cccc(F)c5)c(Cl)c4)c3c2)o1 [Lapatinib] | – | 1.0 | – | – | – | –
4 | O=C(O)c1ccc2c3c1cccc3c(=O)n1c3ccccc3nc21 [STO609] | 1.4 | 1.0 | 0.000816 | – | – | –
5 | CN(C)CC(=O)N1CCC(c2ccc(NC(=O)c3nc(C#N)c[nH]3)c(C3=CCCCC3)c2)CC1 [JNJ-28312141] | 0.3 | 1.0 | 2.3 | – | – | –
6 | CCOc1cc2ncc(C#N)c(Nc3ccc(OCc4ccccn4)c(Cl)c3)c2cc1NC(=O)/C=C/CN(C)C [Neratinib (HKI-272)] | 5.7 | 1.0 | 1.0 | – | – | –
7 | CNC(=O)c1cc(Oc2ccc(NC(=O)Nc3ccc(Cl)c(C(F)(F)F)c3)c(F)c2)ccn1 [Regorafenib (BAY 73-4506)] | 1.0 | 1.2 | 0.0284 | – | – | –
8 | CN(C)CC[C@H](CSc1ccccc1)Nc1ccc(S(=O)(=O)NC(=O)c2ccc(N3CCN(Cc4ccccc4-c4ccc(Cl)cc4)CC3)cc2)cc1[N+](=O)[O-] [ABT-737] | 5.4 | 1.0 | 0.000857 | – | – | –
9 | Nc1ccn([C@@H]2O[C@H](CO)[C@@H](O)[C@@H]2O)c(=O)n1 [Cytarabine] | 28.6 | 1.0 | 0.132 | – | – | –
10 | CC1(C)CCC(CN2CCN(c3ccc(C(=O)NS(=O)(=O)c4ccc(NCC5CCOCC5)c([N+](=O)[O-])c4)c(Oc4cnc5[nH]ccc5c4)c3)CC2)=C(c2ccc(Cl)cc2)C1 [ABT-199 (BH3 mimetic)] | 7.4 | 1.0 | 9.4 | – | – | –
11 | CCS(=O)(=O)O.COC(=O)c1ccc2c(c1)NC(=O)/C2=C(\Nc1ccc(N(C)C(=O)CN2CCN(C)CC2)cc1)c1ccccc1 [Vargetef] | 0.229 | 1.0 | 0.14 | – | – | –
12 | Cc1cc(Nc2nc(N[C@@H](C)c3ncc(F)cn3)ncc2Cl)n[nH]1 [AZD1480] | 497.3 | 1.0 | 0.365 | – | – | –
13 | Cc1nc(Nc2ncc(C(=O)Nc3c(C)cccc3Cl)s2)cc(N2CCN(CCO)CC2)n1 [Dasatinib] | – | 1.0 | – | – | – | –
14 | Cc1noc2c1-c1ccccc1C(c1ccc(Cl)cc1)=N[C@H]2CC(N)=O [CPI-0610] | – | 0.8 | – | – | – | –
15 | O=c1ncn2nc(Sc3ccc(F)cc3F)ccc2c1-c1c(Cl)cccc1Cl [VX-745] | 2.9 | 1.0 | 0.0543 | – | – | –
16 | Nc1nc(N)c2nc(-c3cccc(O)c3)c(-c3cccc(O)c3)nc2n1 [TG100-115] | 1.8 | 1.0 | 1.0 | – | – | –
17 | Cc1ccc(NC(=O)c2ccc(CN3CCN(C)CC3)cc2)cc1Nc1nc(-c2cccnc2)cs1 [Masitinib (AB-1010)] | – | – | – | 0.174 | 1.0 | 3.7
18 | CC(C)(C)c1cnc(CSc2cnc(NC(=O)C3CCNCC3)s2)o1 [SNS-032 (BMS-387032)] | 6.0 | 0.9 | 14.0 | – | – | –
19 | COCCNCc1ccc(-c2cc3nccc(Oc4ccc(NC(=S)NC(=O)Cc5ccc(F)cc5)cc4F)c3s2)nc1 [MGCD-265] | 6.0 | 1.0 | 97.6 | – | – | –
20 | C#Cc1cccc(Nc2ncnc3cc(OCCOC)c(OCCOC)cc23)c1 [Erlotinib] | – | 1.0 | – | – | – | –

Row | Molecule | EC50 decrease, fold (Screen N 1) [1] [fold] | EC50 decrease, fold (Screen N 2) [2] [fold] | EC50 decrease, fold (Screen N 3) [3] [fold] | EC50 decrease, fold (Screen N 1) [fold] | EC50 decrease, fold (Screen N 2) [fold] | EC50 decrease, fold (Screen N 3) [fold]
21 | Cc1[nH]nc2ccc(-c3cncc(OC[C@@H](N)Cc4ccccc4)c3)cc12 [A-674563] | 3.1 | 1.2 | 6.2 | – | – | –
22 | CC(C)NC[C@@H](C(=O)N1CCN(c2ncnc3c2[C@H](C)C[C@H]3O)CC1)c1ccc(Cl)cc1 [Ipatasertib (GDC-0068)] | – | 1.0 | – | – | – | –
23 | Clc1ccc(Nc2nnc(Cc3ccncc3)c3ccccc23)cc1 [Vatalanib (PTK787)] | 0.245 | 1.0 | 0.7 | – | – | –
24 | CN(C)C[C@@H]1CCn2cc(c3ccccc32)C2=C(C(=O)NC2=O)c2cn(c3ccccc23)CCO1 [LY-333531] | 3.3 | 1.0 | 1.1 | – | – | –
25 | c1cn2cc(-c3ccc4cn[nH]c4c3)nc(Nc3ccc(N4CCOCC4)cc3)c2n1 [Entospletinib (GS-9973)] | 16.8 | 1.0 | 0.131 | – | – | –
26 | COc1cc(C(=O)O)ccc1NC(=O)[C@@H]1N[C@@H](CC(C)(C)C)[C@](C#N)(c2ccc(Cl)cc2F)[C@H]1c1cccc(Cl)c1F [Idesanutlin] | – | 1.0 | – | – | – | –
27 | O=C(Nc1cccc2cccnc12)c1ccc(N2C(=O)[C@@H]3[C@H](C2=O)[C@@H]2C=C[C@H]3C2)cc1 [IWR1] | – | 1.0 | – | – | – | –
28 | COc1cc2nccc(Oc3ccc(NC(=O)Nc4cc(C)on4)c(Cl)c3)c2cc1OC [Tivozanib (AV-951)] | 15.6 | 1.0 | 89.9 | – | – | –
29 | COc1cc2nccc(Oc3ccc(NC(=O)C4(C(=O)Nc5ccc(F)cc5)CC4)cc3)c2cc1OC [Cabozantinib (XL-184)] | 3.2 | 1.0 | 0.259 | – | – | –
30 | Cc1[nH]c(/C=C2\C(=O)Nc3ccc(S(=O)(=O)N(C)c4cccc(Cl)c4)cc32)c(C)c1C(=O)N1CCN(C)CC1 [SU11274] | 11.9 | 1.0 | 0.000745 | – | – | –
31 | NF-kB Activation Inhibitor | 11.2 | 1.0 | 0.0602 | – | – | –
32 | COc1ccc(COc2ccc(Cc3cnc(N)nc3N)cc2OC)cc1 [GW-2580] | – | 1.0 | – | – | – | –
33 | CN(C)C/C=C/C(=O)Nc1cc2c(Nc3ccc(F)c(Cl)c3)ncnc2cc1O[C@H]1CCOC1 [Afatinib (BIBW-2992)] | – | – | – | 0.5 | 1.2 | 18.4
34 | Cc1sc2c(c1C)C(c1ccc(Cl)cc1)=N[C@@H](CC(=O)Nc1ccc(O)cc1)c1nnc(C)n1-2 [OTX-015] | – | 0.8 | – | – | – | –
35 | Cc1ccccc1C(C(=O)NC1CCCCC1)N(C(=O)Cn1ccnc1C)c1cccc(F)c1 (stereo not drawn) [AGI-5198] | 1.0 | 1.0 | 0.16 | – | – | –
36 | OCCn1cc(-c2ccc3c(c2)CC/C3=N\O)c(-c2ccncc2)n1 [GDC-0879] | 0.9 | 1.0 | 952.6 | – | – | –
37 | NC(=O)c1ccc(-c2nc(-c3ccc4c(c3)OCO4)c(-c3ccccn3)[nH]2)cc1 [SB-431542] | 1.0 | 1.0 | 1058.2 | – | – | –
38 | CC(C)C[C@H](NC(=O)[C@H](Cc1ccccc1)NC(=O)c1cnccn1)B(O)O [Velcade] | – | – | – | 0.457 | 0.468 | 0.0645
39 | CCc1cc(Nc2nccc(-c3c(-c4ccc(OC)c(C(=O)Nc5c(F)cccc5F)c4)nc4ccccn34)n2)c(OC)cc1N1CCC(N2CCN(S(C)(=O)=O)CC2)CC1 [GSK-1904529A] | 41.6 | 1.0 | 44.8 | – | – | –

From paper PMC6433232, “Targeting mitochondria in cancer therapy could provide a basis for the selective anti-cancer activity” (PLoS ONE, 2019)
